Data from paper PMC9881724, “Rational design of potent ultrashort antimicrobial peptides with programmable assembly into nanostructured hydrogels” (Frontiers in Chemistry, 2023).
Residues, ends and D or L forms follow the SMILES beside them. *: point of attachment. Fmoc = O=C(OCC1c2ccccc2-c2ccccc21)*

Experiment: Self-assembly and hydrogelation in water (electron microscopy, rheology, observation)
Format: physicochemical
Method: The peptides were prepared by mixing the lyophilized peptide directly with type 1 water, vortexed for a few seconds to obtain an isotropic solution and stored at 4°C–5°C in between experiments.
Carbon-coated grids (EMSCF200H-CU-TH, ProSciTech) were glow discharged to render them hydrophilic. A 1–5 μl aliquot of sample was applied to an upturned grid held in anti-capillary forceps, over moist filter paper, and left for 5 min over moistened filter paper to adsorb. Excess liquid was then removed with filter paper, the grid was then inverted onto a drop of 2% PTA stain, pH 6.9 on Parafilm, for 1 min. […] Images were recorded using a FEI Eagle 4 k × 4 k CCD camera and AnalySIS v3.2 camera control software (Olympus).
A laboratory-built humidity-controlled vitrification system was used to prepare the samples for Cryo-TEM. […] Images were recorded using a FEI Eagle 4 k × 4 k CCD camera at a range of magnifications using AnalySIS v3.2 camera control software (Olympus).
Rheology was undertaken on a calibrated rheometer (Anton Paar MCR 301, Anton Paar Pty. Ltd. Austria) fitted with a 15 mm cone plate fixture with a cone angle of 1° (CP15-1, Anton Paar Pty. Ltd. Austria). […] All measurements were carried out in triplicate with the mean and standard deviation shown, calculated and plotted in GraphPad Prism.

N=C(N)NCCC[C@H](NC(=O)[C@H](CCCNC(=N)N)NC(=O)[C@H](Cc1c[nH]c2ccccc12)NC(=O)[C@@H]1CCCN1C(=O)[C@H](Cc1c[nH]c2ccccc12)NC(=O)OCC1c2ccccc2-c2ccccc21)C(N)=O [P-Priscilicidin, Fmoc-WPWRR-NH2] (Fmoc-WPWRR-NH2)
Nanostructures imaged by electron microscopy (10% wt in water, 1 month incubation, in coexistence with globular oligomers): nanoribbons | State of aqueous samples (rheology summary) (peptide in water, oscillatory rheology G'/G''): colloidal solutions of low viscosity
